Legend:
Botrytis cinerea = assay: Controlling effect (curing effect) on cucumber gray mold; format: in vivo; details: 72 h, immersion of inoculated cotyledons, 15° C., read-out: Controlling effect Bc (cucumber gray mold)
Experimental: Controlling effect (curing effect) on cucumber gray mold The cotyledons of potted cucumber plants at the 1 leaf stage were cut off and each of them was inoculated with a mycelial tuft of gray mold fungus (Botrytis cinerea) cultured on PSA medium. After having been placed in a moist chamber at 15° C. for 24 hours, the cotyledons were immersed in a 200 ppm liquid chemical containing each compound of the present invention as active ingredient. […]

Phytophthora infestants = assay: whole plant or invertebrate; format: in vivo; details: 168 h; read-out: Controlling effect Pi (tomato late blight)
Pyricularia oryzae = assay: whole plant or invertebrate; format: in vivo; details: 168 h, read-out: Controlling effect Ps (rice blast)
[1] = system: Pseudoperonospora cubensis; assay: Controlling effect on cucumber Downy mildew; format: in vivo; details: 168 h, 200 ppm spray, inoculation after 24 hours, read-out: Controlling effect Pc (cucumber downy mildew)
Alternaria mali = assay: Inhibition of hypha growth on malt extract agar, Alternaria mali; details: read-out: Controlling effect (growth inhibition rate) ALM
Experimental: (§1) Each preparation to be tested was added to malt extract agar medium to adjust the concentration to 50 ppm, and the resulting mixture was dispensed into Petri dishes. As an inoculum, a prepared mycerial tuft of each test fungus was punched out together with agar by means of a 4-mm-diameter cork borer and inoculated on medium. The incubation temperature was adjusted to 28±2° .C (or 18±2° C. in the case of Selupula lacrymas).
(§2) The diameter of mycerial tuft was measured 2 to 10 days after the inoculation, and the inhibition rate of hypha growth (the following equation) was measured.
(§3) The controlling effect was evaluated according to the following criterion.

Aspergillus niger = assay: Inhibition of hypha growth on malt extract agar, Aspergillus niger; details: read-out: Controlling effect (growth inhibition rate) ASN
Experimental: as §1, §2, §3

Trichoderma viride = assay: Inhibition of hypha growth on malt extract agar, Trichoderma viride; details: read-out: Controlling effect (growth inhibition rate) TRV
Experimental: as §1, §2

Rhizopus nigricans = assay: Inhibition of hypha growth on malt extract agar, Rhizopus nigricans; details: Rhizopus stolonifer, read-out: Controlling effect (growth inhibition rate) RHS
Experimental: as §1, §2

Serpula lacrymans = assay: Inhibition of hypha growth on malt extract agar, Serpula lacrymans; details: read-out: Controlling effect (growth inhibition rate) SEL
Experimental: as §1, §2

[2] = system: Cladosporium cladosporioides; assay: Inhibition of hypha growth on malt extract agar, Cladosporium cladosporioides; details: read-out: Controlling effect (growth inhibition rate) CLC
Experimental: as §1, §2

Chaetomium globosum = assay: Inhibition of hypha growth on malt extract agar, Chaetomium globosum; details: read-out: Controlling effect (growth inhibition rate) CHG
Experimental: as §1, §2, §3

Tyromyces palustris = assay: Inhibition of hypha growth on malt extract agar, Tyromyces palustris; details: read-out: Controlling effect (growth inhibition rate) TYP
Experimental: as §1, §2

Coriolus versicolor = assay: Inhibition of hypha growth on malt extract agar, Coriolus versicolor; format: cell-based; details: Trametes versicolor, 28±2° C., 2 to 10 days, read-out: Controlling effect (growth inhibition rate) COV
Fusarium oxysporum = assay: Inhibition of hypha growth on malt extract agar, Fusarium oxysporum; details: read-out: Controlling effect (growth inhibition rate) FUO
Experimental: as §1, §2, §3

SMILES | pest or weed control at 200 ppm (Botrytis cinerea) [%] | pest or weed control at 200 ppm (Phytophthora infestants) [%] | pest or weed control at 200 ppm (Pyricularia oryzae) [%] | pest or weed control at 200 ppm [1] [%] | inhibition at 50 ppm (Alternaria mali) [%] | inhibition at 50 ppm (Aspergillus niger) [%] | inhibition at 50 ppm (Trichoderma viride) [%] | inhibition at 50 ppm (Rhizopus nigricans) [%] | inhibition at 50 ppm (Serpula lacrymans) [%] | inhibition at 50 ppm [2] [%] | inhibition at 50 ppm (Chaetomium globosum) [%] | inhibition at 50 ppm (Tyromyces palustris) [%] | inhibition at 50 ppm (Coriolus versicolor) [%] | inhibition at 50 ppm (Fusarium oxysporum) [%]
CCOc1nsc(S(=O)(=O)C(C)C)c1C#N [Compound 38] | 60 to 79 | 95 to 100 | 95 to 100 | 95 to 100 |  |  |  |  |  |  |  |  |  | 
C#CCOc1nsc([S+](C)[O-])c1C#N (centres unmarked) [Compound 16] | 60 to 79 | 95 to 100 | 80 to 94 | 95 to 100 | 100 | 100 | 100 | 100 | 100 | 100 | 100 | 100 | 85 to 99 | 85 to 99
CCS(=O)(=O)c1snc(OC(F)F)c1C#N [Compound 25] | 60 to 79 | 95 to 100 | 80 to 94 | 95 to 100 |  |  |  |  |  |  |  |  |  | 
C#CCOc1nsc(S(=O)(=O)C(F)F)c1C#N [Compound 148] | 60 to 79 | 95 to 100 | 95 to 100 | 80 to 94 | 100 | 100 | 100 | 100 | 100 | 100 | 100 | 100 | 100 | 100
CC(C)Oc1nsc(S(=O)(=O)C(F)F)c1C#N [Compound 144] | 95 to 100 | 95 to 100 | 95 to 100 | 95 to 100 | 100 | 100 | 100 | 100 | 100 | 100 | 100 | 100 | 100 | 100
C#CCOc1nsc(S(=O)(=O)CC)c1C#N [Compound 58] | 0 to 59 | 95 to 100 | 80 to 94 | 95 to 100 |  |  |  |  |  |  |  |  |  | 
COc1nsc(S(=O)(=O)C(F)F)c1C#N [Compound 140] | 95 to 100 | 95 to 100 | 95 to 100 | 95 to 100 | 100 | 100 | 100 | 100 | 100 | 100 | 100 | 100 | 100 | 100
CCOc1nsc(S(=O)(=O)C(F)F)c1C#N [Compound 141] | 80 to 94 | 95 to 100 | 95 to 100 | 95 to 100 |  |  |  |  |  |  |  |  |  | 
CCOc1nsc(S(=O)(=O)CC)c1C#N [Compound 23] | 60 to 79 | 95 to 100 | 95 to 100 | 95 to 100 |  |  |  |  |  |  |  |  |  | 
COc1nsc(S(=O)(=O)c2ccc(Cl)cc2)c1C#N [Compound 93] | 60 to 79 | 95 to 100 | 95 to 100 | 95 to 100 | 100 | 100 | 100 | 100 | 100 | 100 | 100 | 100 | 100 | 100
CCS(=O)(=O)c1snc(OC)c1C#N [Compound 37] | 0 to 59 | 95 to 100 | 95 to 100 | 95 to 100 |  |  |  |  |  |  |  |  |  | 
C=CCOc1nsc(S(C)(=O)=O)c1C#N [Compound 22] | 0 to 59 | 95 to 100 | 95 to 100 | 80 to 94 | 85 to 99 | 85 to 99 | 85 to 99 | 85 to 99 | 100 | 100 | 55 to 84 | 100 | 100 | 85 to 99
COc1nsc(S(=O)(=O)C(C)C)c1C#N [Compound 35] | 0 to 59 | 95 to 100 | 95 to 100 | 95 to 100 |  |  |  |  |  |  |  |  |  | 
C#CCOc1nsc(S(=O)(=O)c2ccc(Cl)cc2)c1C#N [Compound 120] | 60 to 79 | 95 to 100 | 95 to 100 | 95 to 100 |  |  |  |  |  |  |  |  |  | 
COc1nsc(S(C)(=O)=O)c1C#N [Compound 20, 3-methoxy-4-cyano-5-methylsulfonylisothiazole] | 60 to 79 | 95 to 100 | 95 to 100 | 95 to 100 | 100 | 100 | 100 | 100 | 100 | 100 | 100 | 100 | 100 | 100
CCOc1nsc(S(C)(=O)=O)c1C#N [Compound 21] | 60 to 79 | 95 to 100 | 95 to 100 | 95 to 100 |  |  |  |  |  |  |  |  |  | 
CCOC(=O)c1ccccc1S(=O)(=O)c1snc(O)c1C#N [Compound 5] | 0 to 59 | 80 to 94 | 60 to 79 | 60 to 79 |  |  |  |  |  |  |  |  |  | 
CCCCS(=O)(=O)c1snc(OC(C)C)c1C#N [Compound 52] | 60 to 79 | 95 to 100 | 80 to 94 | 95 to 100 |  |  |  |  |  |  |  |  |  | 
C#CCOc1nsc(S(=O)(=O)c2ccccc2)c1C#N [Compound 104] | 60 to 79 | 95 to 100 | 95 to 100 | 80 to 94 |  |  |  |  |  |  |  |  |  | 
CCC(C)Oc1nsc(S(=O)(=O)C(F)F)c1C#N (centres unmarked) [Compound 145] | 0 to 59 | 95 to 100 | 95 to 100 | 95 to 100 |  |  |  |  |  |  |  |  |  | 
COc1nsc(S(=O)(=O)c2ccc(C)cc2)c1C#N [Compound 90, 3-methoxy-4-cyano-5-(4-methylphenyl) sulfonylisothiazole] | 60 to 79 | 95 to 100 | 95 to 100 | 95 to 100 |  |  |  |  |  |  |  |  |  | 
CC(C)S(=O)(=O)c1snc(OC(F)F)c1C#N [Compound 27] | 0 to 59 | 95 to 100 | 95 to 100 | 80 to 94 |  |  |  |  |  |  |  |  |  | 

— patent US5484934A, “Isothiazole derivatives, a process for production thereof and uses thereof” (Nihon Nohyaku Co., Ltd., priority 1992, dated 1996)
